In patent publication US20160193188A1, “METHODS AND COMPOSITIONS FOR INCREASING THE EFFECTIVENESS OF ANTIVIRAL AGENTS” (ANTIVIRUS THERAPEUTICS, priority 2013, published 2016):
Where two headings read alike, the source gives them in different places.

Key:
rhinovirus type 39 = experiment: Study 843-203: experimentally induced human rhinovirus respiratory infection in healthy adults, antiviral and clinical efficacy; assay type: in vivo
Procedure: Subjects were confined to a clinical facility with on-site medical surveillance from Day −2 through Day 5; outpatient follow-up visits were conducted on Days 5-7. On Day −1, 24 hours before administration of the first dose of study drug, each subject received an intranasal inoculation of 100-300 tissue culture infective dose 50% (TCID50) rhinovirus type 39. Nasal wash specimens were collected pre-inoculation and once or twice daily at predetermined time points on Days 1-7 for virologic determinations. Nasal mucus weights were determined daily through Day 4. The presence and severity of clinical symptoms were assessed throughout the study period. […] One subject in the pleconaril BID nasal spray group had study drug interrupted temporarily due to “blood in nasal mucus” observed on Day 1; this event was considered mild and resolved without treatment, and the subject completed BID dosing on Days 2 and 3.
Primary Endpoint: Log-transformed virus titers from serial nasal wash samples in Study 843-203 are shown in FIG. 2 for virology evaluable subjects (i.e., those subjects with a pre-inoculation serum neutralizing antibody titer to rhinovirus type 39 ˜1:2 and reverse transcriptase polymerase chain reaction [RT-PCR] and culture negative nasal wash sample and at least one post baseline nasal wash sample that was RT-PCR or culture positive). At the time of maximum viral titers (Day 2 AM) in the combined vehicle groups, median viral titers in each pleconaril group were 0.78-1.26 log lower than vehicle groups, and viral titers in the combined pleconaril BID/TID groups were 1 log lower than the vehicle groups.

[1] = Study 843-203: safety and tolerability in healthy adults; assay type: in vivo, human; conditions: healthy volunteers
[2] = 25° C.; cited from earlier work
CYP 3A = conditions: oral delivery, 200-400 mg dose level, cited from earlier work
[3] = test system: human respiratory picornavirus; conditions: oral dosage form; cited from earlier work
[4] = 12 mg per day nasal spray; cited from earlier work

Cc1cc(CCCOc2c(C)cc(-c3noc(C(F)(F)F)n3)cc2C)on1 [pleconaril, 3-{3,5-dimethyl-4-[3-(3-methylisoxazol-5-yl)propoxy]phenyl}-5-(trifluoromethyl)-1,2,4-oxadiazole]
repeated measures analysis of viral titers, between-group comparison (rhinovirus type 39; Day 1 PM to Day 7): not significant
median log-transformed viral titers vs vehicle groups (rhinovirus type 39; each pleconaril treatment group (intranasal and oral), initiation of study drug through Day 3 AM): lower than the vehicle groups at all measured time points
nasal mucus weights vs combined vehicle controls (rhinovirus type 39; nasal and oral pleconaril groups): significantly lower nasal mucus weights
benefit vs. vehicle (rhinovirus type 39; nasal and oral pleconaril groups, through day 3 post infection): showed benefit vs. vehicle
effect on common cold symptom duration and viral titers (rhinovirus type 39; nasal spray BID, nasal spray TID or oral): effective in reducing common cold symptom duration and viral titers
median viral titers lower than vehicle groups (rhinovirus type 39; nasal wash, Day 2 AM (time of maximum viral titers), each pleconaril group): 0.78-1.26 log
viral titers lower than vehicle groups (rhinovirus type 39; nasal wash, Day 2 AM, combined pleconaril BID/TID groups): 1 log
serious adverse events [1]: No serious adverse events
solubility in water [2]: < 0.02 µg/mL
CYP 3A / CYP 3A4 induction (CYP 3A): inducer of CYP 3A4
CYP 3A / CYP 3A4 induction (CYP 3A; listed as Pleconaril): induction of CYP 3A
activity against human respiratory picornavirus [3]: broad activity
clinical/antiviral effect compared with 400 mg oral dose [4]: roughly similar clinical/antiviral effect
systemic exposure [4]: without any significant systemic exposure
